Source: patent US10377755B2, “BCL-2 inhibitors” (Newave Pharmaceutical Inc., priority 2016, dated 2019)
pEC50, pIC50: −log10 of the molar value.

Key:
H146 = test: In vitro anti-proliferation assay (ATPlite) in BCL-XL-dependent small cell lung cancer cell line H146; format: cell-based; settings: Homo sapiens, NCI-H146; about 72 hours, 5% FBS
Protocol: Cell antiproliferation is assayed by PerkinElmer ATPlite™ Luminescence Assay System. Briefly, the various test cancer cell lines are plated at a density of about 1×10^4 cells per well in Costar 96-well plates, and are incubated with different concentrations of compounds for about 72 hours in medium supplemented with 5% FBS. One lyophilized substrate solution vial is then reconstituted by adding 5 mL of substrate buffer solution, and is agitated gently until the solution is homogeneous. About 50 μL of mammalian cell lysis solution is added to 100 μL of cell suspension per well of a microplate, and the plate is shaken for about five minutes in an orbital shaker at ˜700 rpm. This procedure is used to lyse the cells and to stabilize the ATP. Next, 50 μL substrate solution is added to the wells and microplate is shaken for five minutes in an orbital shaker at ˜700 rpm. Finally, the luminescence is measured by a PerkinElmer TopCount® Microplate Scintillation Counter. Such assays, carried out with a range of doses of test compounds, allow the determination of the cellular anti-antiproliferative IC50 of the compounds of the present invention.

RS4;11 cells = settings: cited from earlier work
Mcl-1 = Mcl-1 (Homo sapiens (Human), UniProt Q07820); settings: cited from earlier work
CLL [1] = settings: Human Phase I and II; cited from earlier work
CLL [2] = settings: average; read-out: average EC50, apoptosis in CLL; cited from earlier work
RS4;11 xenografts = settings: single dose of 100 mg/kg; cited from earlier work

Chain of Mcl-1 (Q07820 whole entry): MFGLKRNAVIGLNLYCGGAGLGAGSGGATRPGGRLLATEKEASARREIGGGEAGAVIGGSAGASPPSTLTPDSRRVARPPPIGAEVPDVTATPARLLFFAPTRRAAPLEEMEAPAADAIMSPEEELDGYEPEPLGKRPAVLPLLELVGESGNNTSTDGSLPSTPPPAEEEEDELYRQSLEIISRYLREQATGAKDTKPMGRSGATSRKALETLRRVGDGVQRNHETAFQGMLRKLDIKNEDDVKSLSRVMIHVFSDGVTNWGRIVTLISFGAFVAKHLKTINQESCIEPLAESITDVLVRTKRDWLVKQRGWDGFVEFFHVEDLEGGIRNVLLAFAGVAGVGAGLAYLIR

CC1(C)CCC(CN2CCN(c3ccc(C(=O)NS(=O)(=O)c4ccc(NCC5CCOCC5)c([N+](=O)[O-])c4)c(Oc4cnc5[nH]ccc5c4)c3)CC2)=C(c2ccc(Cl)cc2)C1 [ABT-199]
pIC50 (H146): < 5.70 | pEC50 (RS4;11 cells): 8.10 | activity to Mcl-1 (Mcl-1): no activity | clinical efficacy for CLL (CLL [1]): highly efficacious | clinical toxicity (CLL [1]): lethal tumour lysis syndrome | pEC50 (CLL [2]): 8.52 | maximal tumor growth inhibition (RS4;11 xenografts): 95% | tumor growth delay (RS4;11 xenografts): 152%
